Source: ChEMBL document CHEMBL1201862, “PubChem BioAssay data set” (2004)
Several values for one entry are separate records, joined by “and”; a condition that tells them apart may be missing. Equal values may be shown once. Activity calls are given as the source filed them.

Columns and labels:
Cytochrome P450 2C9 = Cytochrome P450 2C9 (Homo sapiens, UniProt P11712)
[1] = cytotoxicity toward NIH3T3 fibroblasts, dose response, counter-screen, cell-based, ATP luminescence, mouse fibroblasts (AID 2010); assay type: functional;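 note: cells exposed to compound for about 90 hours before reading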
[2] = inhibitors of intracellular T. cruzi replication, confirmation, NIH3T3 host cells, beta-gal luminescence (AID 2044); assay type: functional, cell-based;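 note: intracellular parasites grown in NIH/3T3 mouse fibroblasts as host cells; luminescent beta-galactosidase reporter signal from transgenic T. cruzi replicating inside host cells; inhibitors lower the luminescence signal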
Cytochrome P450 3A4 = Cytochrome P450 3A4 (Homo sapiens, UniProt P08684);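 note: CYP3A4 tested as one member of a cytochrome P450 panel screen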
Cytochrome P450 2C19 = Cytochrome P450 2C19 (Homo sapiens, UniProt P33261); experiment: Cytochrome panel assay with activity outcomes. Panel member name: p450-cyp2c19 Compounds with AC50 equal or less than 10 uM are considered active; assay type: functional
[3] = Luminescence Cell-Based Dose Response HTS to Identify Activators of Luciferase Translation or Activity in H4 […] Cells. [Related pubchem assays: 1829 (Project Summary), 1814 (Primary HTS)]; assay type: functional
[4] = test system: Streptococcus sp. 'group A'; experiment: growth inhibition of control SK(-) GAS strain, dose response, counter-screen for streptokinase expression inhibitor project, luminescence, kanamycin, BacTiterGlo, confirmation (AID 1900); assay type: functional, organism-based
Streptococcus = experiment: Group A Streptococcus viability loss, dose response, counter-screen for streptokinase expression inhibitor project, luminescence, BacTiterGlo (AID 1915); assay type: functional, organism-based;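 note: potency for reduction of bacterial viability or growth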

Sequence of Cytochrome P450 2C19 (P33261 whole entry): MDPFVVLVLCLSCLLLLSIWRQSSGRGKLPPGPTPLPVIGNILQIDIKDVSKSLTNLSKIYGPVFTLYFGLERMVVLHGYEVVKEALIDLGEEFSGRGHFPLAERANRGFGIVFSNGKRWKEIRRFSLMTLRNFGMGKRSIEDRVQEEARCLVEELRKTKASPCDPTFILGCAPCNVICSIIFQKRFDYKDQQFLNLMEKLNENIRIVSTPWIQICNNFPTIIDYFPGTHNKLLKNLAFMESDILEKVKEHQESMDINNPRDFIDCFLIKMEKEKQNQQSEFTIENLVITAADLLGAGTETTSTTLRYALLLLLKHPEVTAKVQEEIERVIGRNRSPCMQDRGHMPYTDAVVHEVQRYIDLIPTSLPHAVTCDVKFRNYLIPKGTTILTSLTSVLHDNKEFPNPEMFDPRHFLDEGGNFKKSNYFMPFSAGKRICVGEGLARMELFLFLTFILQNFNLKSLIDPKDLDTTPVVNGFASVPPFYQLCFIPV
Sequence of Cytochrome P450 3A4 (P08684 whole entry): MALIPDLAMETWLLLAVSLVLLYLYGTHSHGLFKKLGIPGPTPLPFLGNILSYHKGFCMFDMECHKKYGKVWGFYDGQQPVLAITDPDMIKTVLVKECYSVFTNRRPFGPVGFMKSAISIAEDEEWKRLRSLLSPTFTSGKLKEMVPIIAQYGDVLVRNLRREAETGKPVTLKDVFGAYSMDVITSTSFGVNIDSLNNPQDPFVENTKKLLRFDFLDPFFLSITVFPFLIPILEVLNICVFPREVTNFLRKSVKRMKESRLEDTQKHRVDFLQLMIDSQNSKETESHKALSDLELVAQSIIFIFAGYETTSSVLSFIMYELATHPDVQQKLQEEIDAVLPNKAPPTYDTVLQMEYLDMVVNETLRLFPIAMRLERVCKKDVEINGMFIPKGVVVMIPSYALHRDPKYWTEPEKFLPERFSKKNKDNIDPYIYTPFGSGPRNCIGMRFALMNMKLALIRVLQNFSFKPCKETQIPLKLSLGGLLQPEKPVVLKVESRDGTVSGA
Sequence of Cytochrome P450 2C9 (P11712 whole entry): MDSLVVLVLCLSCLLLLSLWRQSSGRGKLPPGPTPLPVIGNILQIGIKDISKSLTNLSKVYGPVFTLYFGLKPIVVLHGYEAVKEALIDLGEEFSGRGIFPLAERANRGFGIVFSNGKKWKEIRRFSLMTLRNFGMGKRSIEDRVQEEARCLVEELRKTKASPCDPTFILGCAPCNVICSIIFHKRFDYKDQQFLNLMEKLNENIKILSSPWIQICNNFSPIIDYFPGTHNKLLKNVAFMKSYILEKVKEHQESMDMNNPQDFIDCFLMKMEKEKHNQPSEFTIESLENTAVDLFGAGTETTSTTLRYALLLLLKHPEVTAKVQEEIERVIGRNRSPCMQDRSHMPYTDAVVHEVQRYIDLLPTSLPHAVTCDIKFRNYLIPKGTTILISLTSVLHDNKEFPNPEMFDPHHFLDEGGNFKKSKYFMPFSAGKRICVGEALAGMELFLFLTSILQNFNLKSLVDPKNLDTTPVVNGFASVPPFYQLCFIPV

Structure (SMILES) | EC50 [1] | EC50 [2] | AC50 (Cytochrome P450 3A4) | other results
CCn1c(SCC(=O)NC2CCCc3ccccc32)nnc1-c1cccs1 (configuration not stated) |  |  |  | AC50 (Cytochrome P450 2C9): 4.47 µM (inconclusive)
CCOC(=O)C1=C(c2ccccc2)Nc2ncnn2C1c1ccc(OC)c(OC)c1OC (configuration not stated) | > 60 µM (not active) | 1.84 µM (active) |  | 
CCC1=NN(C(=O)CCc2ccccc2)C(O)(C(F)(F)F)C1 (configuration not stated) |  |  | 15.8 µM (inconclusive) | 
CC(C)(C)CC(=O)NC(=S)Nc1ccccc1C(F)(F)F |  |  | 22.4 µM (inconclusive) | 
Fc1ccc(COc2cccc(CNCc3ccncc3)c2)cc1 | > 60 µM (not active) | 6.99 µM (active) |  | 
COc1cc(-c2cc(-c3ccccc3)nc(SCC(=O)Nc3nccs3)c2C#N)cc(OC)c1OC | > 30 µM (not active) | 1.72 µM (active) |  | 
Oc1c(N=NC(S)=Nc2ccccc2F)c2ccccc2n1Cc1ccc(Cl)cc1 | 5.85 µM (active) | 1.06 µM (active) |  | 
COc1ccc(-c2nnc3n2N=C(C)CS3)cc1 |  |  |  | AC50 (Cytochrome P450 2C19; read-out: AC50): 25.1 µM (inconclusive); AC50 (Cytochrome P450 2C9): 20 µM (inconclusive)
Cc1cc(C)c(C#N)c(SCC(=O)C(C)(C)C)n1 | > 60 µM (not active) | 1.96 µM (active) |  | 
CC(NC(=O)C1(C)CC1(Br)Br)C(C)(C)C (configuration not stated) |  |  | 14.1 µM (inconclusive) | 
O=C(Cc1ccccc1)NC(=S)Nc1ccc2oc(-c3ccccc3F)nc2c1 |  |  |  | EC50 [3]: 3.01 µM (active)
CC(C)(C)NC(=O)NC(=O)CSc1nnc2ccccn12 |  |  |  | AC50 (Cytochrome P450 2C9): 17.8 µM (inconclusive)
CN(C)CCn1c(=O)n(Cc2ccco2)c(=O)c2c3c(sc21)CCCCC3 | > 60 µM (not active) | 0.196 µM (active) | 12.6 µM (inconclusive) | 
COc1ccc([C@@H](Nc2ccccn2)c2cc(C(C)(C)C)cc(C(C)(C)C)c2O)cc1 |  |  | 2 µM (inconclusive) | 
COc1ccc(CCn2c(-c3cc([N+](=O)[O-])cc([N+](=O)[O-])c3)nc3nc4ccccc4nc32)cc1 | > 60 µM (not active) | 0.157 µM (active) |  | 
Nc1nc(-c2cccs2)cs1 |  |  | 3.98 µM (inconclusive) and 25.1 µM (inconclusive) | AC50 (Cytochrome P450 2C19; read-out: AC50): 3.98 µM (inconclusive) and 39.8 µM (inconclusive)
O=C(Nc1ccc(N2CCOCC2)c(Cl)c1)c1ccc(Br)o1 |  |  |  | EC50 [3]: 0.113 µM (active)
COc1ccc(-c2csc3ncnc(N4CCN(S(=O)(=O)c5cccc(Br)c5)CC4)c23)cc1 | > 60 µM (not active) | 1.71 µM (active) |  | 
O=c1c(-c2ccccc2)nc2cncnc2n1Cc1ccccc1Cl |  |  |  | AC50 (Cytochrome P450 2C19; read-out: AC50): 7.94 µM (inconclusive); AC50 (Cytochrome P450 2C9): 3.16 µM (inconclusive)
COc1ccc(/C=C/c2ccc3cccc(O)c3n2)c(OC)c1OC |  |  |  | EC50 [4]: 4.85 µM (active); EC50 (Streptococcus): 6.25 µM (active)
CCOc1cc(/C=C2\N=C(C)OC2=O)cc(Br)c1OCC(=O)OC |  |  |  | AC50 (Cytochrome P450 2C9): 25.1 µM (inconclusive)
Cc1cc(C)c2cc(CN(Cc3cccnc3)C(=O)c3ccc(F)cc3)c(Cl)nc2c1 | 5.07 µM (active) | 1.08 µM (active) |  | 
Cc1cccc(CN2CCN(CCCc3ccccc3)CC2)c1 | > 60 µM (not active) | 0.478 µM (active) |  | 
Cc1ccccc1/C=N\NC(=O)c1csnn1 |  |  |  | AC50 (Cytochrome P450 2C19; read-out: AC50): 11.2 µM (inconclusive)
C/C(=N/O)c1ccc2cc(Br)c3ccccc3c2c1 |  |  |  | AC50 (Cytochrome P450 2C19; read-out: AC50): 1 µM (inconclusive)

Structure (SMILES) | EC50 [1] | EC50 [2] | AC50 (Cytochrome P450 3A4) | other results
CC(C)OCCCN1C(=O)c2ccccc2C1C(=O)NC1CCCCC1 (configuration not stated) |  |  |  | AC50 (Cytochrome P450 2C19; read-out: AC50): 35.5 µM (inconclusive); AC50 (Cytochrome P450 2C9): 7.08 µM (inconclusive)
COc1ccc(C(C(=O)NC2CCCC2)N(C(=O)c2snc(-c3ccc(F)cc3)c2N)c2ccccc2)cc1 (configuration not stated) |  |  |  | AC50 (Cytochrome P450 2C9): 0.891 µM (inconclusive)
CCOc1ccc(CNC(=O)C2CC(=O)N(C3CCCC3)C2)cc1OC (configuration not stated) |  |  | 25.1 µM (inconclusive) | AC50 (Cytochrome P450 2C19; read-out: AC50): 39.8 µM (inconclusive)
c1ccc2sc(C3(N4CCCCC4)CCCCC3)cc2c1 |  |  | 15.8 µM (inconclusive) and 25.1 µM (inconclusive) | 
Cc1ccc(NC(=O)NNS(=O)(=O)c2ccc(Br)cc2)cc1 |  |  |  | AC50 (Cytochrome P450 2C9): 1 µM (inconclusive)
CCCCCCNC=C1C(=O)N(C)C(=O)N(C)C1=O |  |  |  | AC50 (Cytochrome P450 2C19; read-out: AC50): 15.8 µM (inconclusive); AC50 (Cytochrome P450 2C9): 14.1 µM (inconclusive)
C[C@@H](C(=O)NC1CCN(Cc2ccccc2)CC1)N1C(=O)N2CCc3c([nH]c4ccccc34)[C@@]2(C)C1=O | > 60 µM (not active) | 0.299 µM (active) |  | 
O=C(O)CNC1=NC2(CCCC2)Cc2ccccc21 |  |  |  | AC50 (Cytochrome P450 2C19): inconclusive
O=c1c(-c2ccc(F)cc2)nc2cnc(N3CCNCC3)nc2n1-c1ccccc1 |  |  | 25.1 µM (inconclusive) | AC50 (Cytochrome P450 2C19): inconclusive
COc1cccc(C2c3c(C)nn(-c4ccc([N+](=O)[O-])cc4)c3N=C3C(=O)Nc4ccccc4N32)c1 (configuration not stated) | > 60 µM (not active) | 1.87 µM (active) |  | 
COc1ccc([C@H]2/C=C\CN(S(=O)(=O)c3ccc4ccccc4c3)[C@@H](C)C(=O)N2Cc2ccc(F)cc2)cc1 | > 60 µM (not active) | 2.03 µM (active) |  | 
COc1ccccc1-c1nc(NCc2cccs2)c2ccccc2n1 |  |  |  | AC50 (Cytochrome P450 2C19; read-out: AC50): 20 µM (inconclusive)
c1ccc(CCn2nnnc2C(c2cccnc2)N2CCN(c3nc4ccccc4s3)CC2)cc1 (configuration not stated) | 31.2 µM (active) | 0.244 µM (active) |  | 
COc1ccccc1CCn1c(=O)c(C)nc2cncnc21 |  |  |  | AC50 (Cytochrome P450 2C9): 31.6 µM (inconclusive)
CCOC(=O)c1cc2c(=O)n3ccccc3nc2n(CCCOC)/c1=N\C(C)=O |  |  |  | AC50 (Cytochrome P450 2C9): 20 µM (inconclusive)
NC[C@H](O)c1cc(O)c(O)cc1F |  |  | 31.6 µM (inconclusive) | 
O=C(Nc1cccc(-c2cnc3ccccc3n2)c1)c1ccc(Cl)cc1 |  |  | 3.55 µM (inconclusive) | AC50 (Cytochrome P450 2C9): 1.78 µM (inconclusive)
O=C(Nc1nc(-c2ccccc2)cs1)C1CCCN(S(=O)(=O)c2cccc([N+](=O)[O-])c2)C1 (configuration not stated) | > 60 µM (not active) | 0.173 µM (active) |  | 
CO[C@@H]1COC(=O)C/C=C\[C@@H](C)COC(=O)[C@H](COCc2ccccc2)NC(=O)C/C=C\[C@H]1C |  |  | 3.98 µM (inconclusive) | 
Cc1nc2ncnn2c(C)c1CCC(=O)Nc1ccc(S(=O)(=O)N2CCCCCC2)cc1 |  |  | 39.8 µM (inconclusive) | 
C=C1C(O)(c2ccccc2)C2CC[N+]1(C)CC2.[Cl-] (configuration not stated) |  |  | 3.16 µM (inconclusive) | AC50 (Cytochrome P450 2C19): inconclusive
COc1ccccc1N(CC(O)Cn1c2ccccc2c2ccccc21)S(=O)(=O)c1ccccc1 (configuration not stated) | > 60 µM (not active) | 2.21 µM (active) |  | 
Cc1cccc(N(CC(=O)NCCSCc2ccco2)S(=O)(=O)c2ccccc2)c1 |  |  | 3.55 µM (inconclusive) | 
COc1ccc(-c2nc3cnc(OCc4ccccc4)nc3n(CCC#N)c2=O)cc1 |  |  | 10 µM (inconclusive) | 
CC12CS(=O)(=O)CC1SC(=S)N2c1ccccn1 (configuration not stated) |  |  | 17.8 µM (inconclusive) | 
